Laboratory results as given in publication PMC7665192, “A natriuretic peptide from Arabidopsis thaliana (AtPNP-A) can modulate catalase 2 activity” (Scientific Reports, 2020).
Positions of bridges follow the written chain, without caps; N, C: chain ends. Residues, ends and D or L forms follow the SMILES beside them. *: point of attachment. Biotin = O=C1N[C@H]2[C@H](CS[C@H]2CCCCC(=O)*)N1

Legend:
CAT2 recombinant (rCAT2) = assay: SPR, rCAT2 immobilized on NTA chip; format: binding, Arabidopsis thaliana; conditions: His-tagged rCAT2 immobilized at app. 4,500 RU, analytes at the same concentration, 20 °C
Method: N-terminally 6xHis-tagged AtPNP-A and CAT2 proteins were expressed in BL21 (DE3) One Shot E. coli cells (Life Technologies), purified by affinity chromatography with Ni–NTA beads (Qiagen) and HisTrap HP column (GE Healthcare Lifesciences) as described in[21]. The purity of preparations was verified on 12.5% SDS-PAGE, stained with Coomassie Brilliant Blue (Bio-Rad). Protein identities were confirmed in MS analysis, and protein concentration was determined according to the method of Bradford using BSA as a standard.
SPR experiments were performed at 20 °C on Biacore T100 instrument operated using Biacore T100 control software (version 2.0.2, GE Healthcare Lifesciences) using Series S CM5 or NTA sensor chips as described in[21]. […]
Figure 2 AtPNP-A directly interacts with Arabidopsis CAT2 and bovine liver CAT in vitro. […] The models were analyzed and visualized using UCSF Chimera (version 1.10.2; https://www.cgl.ucsf.edu/chimera/)[55]. […]

CAT2 = assay: Protein-peptide cross-linking, affinity-based isolation and LC–MS/MS; format: binding, Arabidopsis thaliana; conditions: biotinylated pAtPNP-A, cross-linking in A. thaliana mesophyll cell protoplasts; data set published in ref 44
Method: Cross-linking experiments followed by affinity-based isolation and LC-MS/MS identification of […] interactors were performed on A. thaliana (Col-0) wild type (WT) mesophyll cell protoplasts (MCPs) as described in[44].

[1] = tested on: mitogen-activated protein kinase (MAPK) pathway; assay: MAPK pathway activation; conditions: data not shown
[2] = tested on: Calcium-binding EF-hand family protein; assay: Yeast two-hybrid (Y2H) screen; parameters: species or system A. thaliana; conditions: bait AtPNP-A amino acids 26–130, prey At2g41410.1
Method: (§1) The Y2H screen using AtPNP-A as bait was carried out by Dualsystems Biotech AG (Zurich, Switzerland). The bait construct for the screening was made by subcloning the cDNA fragment encoding exported portion of AtPNP-A (amino acids 26 to 130) (Fig. 1a) into the pLexA-DIR vector (Dualsystems Biotech AG). The bait construct was transformed into the strain NMY32 (MATa his3Δ200 trp1-901 leu2-3,112 (lexAop)8-ADE2 LYS2::(lexAop)4-HIS3 URA3::(lexAop)8-lacZ GAL4) using standard procedures. Correct expression of the bait was verified by western blotting of cell extracts using a mouse monoclonal antibody directed against the LexA domain (Dualsystems Biotech AG). The absence of self-activation was verified by co-transformation of the bait together with a control prey and selection on minimal medium lacking tryptophan, leucine, and histidine (selective medium). For the Y2H screen, the bait was co-transformed together with a normalized A. thaliana universal P02403 cDNA library (Dualsystems Biotech AG) into NMY32. 3.1 × 10^6 transformants were screened, yielding 96 transformants that grew on selective medium. […] Library plasmids were isolated from positive clones. The identity of positive interactants was determined by sequencing. DNA sequences translated in all three reading frames and searching against the SwissProt database using the BLASTX algorithm (https://blast.ncbi.nlm.nih.gov).

[3] = tested on: NAD(P)-binding Rossmann-fold superfamily protein; assay: Yeast two-hybrid (Y2H) screen; parameters: species or system A. thaliana; conditions: bait AtPNP-A amino acids 26–130, prey At1g07440.1
Method: as §1

[4] = tested on: SPL8, squamosal promoter binding protein-like 8; assay: Yeast two-hybrid (Y2H) screen; parameters: species or system A. thaliana; conditions: bait AtPNP-A amino acids 26–130, prey At1g02065.1
Method: as §1

| Molecule | SPR binding response to rCAT2 (CAT2 recombinant (rCAT2)) | Identification of CAT2 by LC–MS/MS (CAT2) | Activation of MAPK pathway [1] | Strength of binding [2] | Strength of binding [3] | Strength of binding [4] |
| --- | --- | --- | --- | --- | --- | --- |
| CC(C)C[C@@H]1NC(=O)[C@H](CC(N)=O)NC(=O)[C@H](CC(N)=O)NC(=O)[C@H](CCCCN)NC(=O)[C@H](C(C)C)NC(=O)CNC(=O)[C@H](C(C)C)NC(=O)[C@H](C(C)C)NC(=O)[C@H](CC(C)C)NC(=O)[C@H]([C@@H](C)O)NC(=O)[C@H](CCC(=O)O)NC(=O)[C@H](CCCNC(=N)N)NC(=O)[C@H](CCC(N)=O)NC(=O)[C@H]([C@@H](C)O)NC(=O)CNC(=O)[C@H](Cc2ccc(O)cc2)NC(=O)[C@@H](NC(=O)[C@H](C)NC(=O)[C@H](CO)NC(=O)[C@H](CCCNC(=N)N)NC(=O)[C@@H](NC(=O)[C@H](Cc2ccc(O)cc2)NC(=O)[C@@H]2CCCN2)[C@@H](C)O)CSSC[C@@H](C(=O)NCC(=O)N[C@@H](CCCNC(=N)N)C(=O)N[C@@H](CCCNC(=N)N)C(=O)N[C@@H](Cc2ccc(O)cc2)C(=O)N[C@@H](CCCNC(=N)N)C(=O)N[C@H](C(=O)N[C@@H](CCCNC(=N)N)C(=O)N[C@@H](CCCCNC(=O)CCCC[C@@H]2SC[C@@H]3NC(=O)N[C@@H]32)C(=O)O)C(C)C)NC(=O)[C@H](C)NC(=O)[C@H](CCCNC(=N)N)NC(=O)CNC(=O)[C@H](CC(N)=O)NC(=O)[C@H](CCC(N)=O)NC(=O)[C@H](Cc2c[nH]c3ccccc23)NC1=O [pAtPNP-A] (H-PYTRSACYGTQRETLVVGVKNNLWQNGRACGRRYRVRK(Biotin)-OH; disulfide 7-30; N-terminus and C-terminus assumed) | significant accumulation of the biologically active analyte | CAT2 was identified by LC–MS/MS only in samples containing pAtPNP-A | does not activate mitogen-activated protein kinase (MAPK) pathway |  |  |  |
| AtPNP-A: An A. thaliana PNP, termed AtPNP-A (At2g18660; Q9ZV52) |  |  |  | Weak | Moderate | Weak |
